Results on 28 compounds are retold here after patent US11919902B2, “Aryl-bipyridine amine derivatives as phosphatidylinositol phosphate kinase inhibitors” (HiberCell, Inc., priority 2017, dated 2024).

Some results are limits rather than exact numbers.

One may read the IC50 as the concentration at which inhibition is half-maximal. A lower IC50 goes with greater potency.

In this experiment the target is T1, PIP4K2A (full length protein, SignalChem) (Homo sapiens, UniProt P48426).
T1 construct: 4 nM PIP4K2A (full length protein, SignalChem); purchased SignalChem
T1 sequence (P48426 1-406): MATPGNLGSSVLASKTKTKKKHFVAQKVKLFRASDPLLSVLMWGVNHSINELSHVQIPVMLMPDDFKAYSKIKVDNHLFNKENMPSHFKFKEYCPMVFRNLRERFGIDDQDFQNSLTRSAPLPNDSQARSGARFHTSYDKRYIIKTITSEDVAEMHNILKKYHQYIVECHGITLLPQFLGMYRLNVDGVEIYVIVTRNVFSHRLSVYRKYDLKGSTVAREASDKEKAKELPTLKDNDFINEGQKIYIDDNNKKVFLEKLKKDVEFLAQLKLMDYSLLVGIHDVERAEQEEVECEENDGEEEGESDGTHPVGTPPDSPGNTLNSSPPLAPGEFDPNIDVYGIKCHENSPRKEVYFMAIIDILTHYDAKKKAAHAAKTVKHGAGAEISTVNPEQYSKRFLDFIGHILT
Description: Kinase Assay PIP4K2 A (Sprint); ADP-Glo biochemical assay. The settings on record: Table 2; compounds listed under IC50 range headings. How it is done: Dilution series of the compounds were prepared in DMSO at 100 times the final assay concentration (n1=n0/3 in 10 points). The compounds were further diluted to three times the assay concentration in assay buffer (20 mM MOPS pH 7.2, 25 mM magnesium chloride, 0.005% Tween 20). 6 μL of the diluted compounds were added to a 384 well assay plate followed by 9 μL of a mix consisting of 4 nM PIP4K2A (full length protein, SignalChem) and 100 μM PI(5)P diC8 (Tebu-Bio). Enzyme and compounds were pre-incubated at room temperature for 15 min.
Then 3 μL of a solution containing 60 μM ATP (Promega) in assay buffer was added to the wells containing compound and enzyme and mixing was performed by pipetting several times. The reaction was incubated at room temperature for 1 h. Then 18 μL of ADP-Glo™ Reagent (Promega) was added to stop the kinase reaction and deplete the unconsumed ATP, mixing was performed by pipetting several times. The plate was incubated at room temperature for 40 min before addition of 36 μL of Kinase Detection Reagent (Promega) to convert ADP to ATP and introduce luciferase and luciferin to detect ATP. The reaction was incubated at room temperature for 40 min before the luminescence was measured in a in a Victor 3V 1420 multilabel counter (Perkin Elmer).
Percent inhibition of the compounds as compared to dimethyl sulfoxide treated control samples was calculated. Compound concentration versus percent inhibition were fitted to generate IC50 values.
The compound `CN(C)C(=O)c1ccc(-c2cc(-c3ccnc(C4(C#N)CC4)c3)cnc2N)nc1` [Example 103, 2′-amino-2″-(1-cyanocyclopropyl)-N,N-dimethyl-[2,3′:5′,4″-terpyridine]-5-carboxamide] returned an IC50 of 100 to 1000 nM.
As for `COC(=O)c1cc2c(-c3cnc(N)c(-c4ccc(N5CCCC5=O)cc4)c3)ccnc2[nH]1` [Example 94, methyl 4-(6-amino-5-(4-(2-oxopyrrolidin-1-yl)phenyl)pyridin-3-yl)-1H-pyrrolo[2,3-b]pyridine-2-carboxylate], the figure is 100 to 1000 nM; as for `CN(C)C(=O)c1ccc(-c2cc(-c3ccnc(C(C)(C)C#N)c3)cnc2N)nc1` [Example 102, 2′-Amino-2″-(2-cyanopropan-2-yl)-N,N-dimethyl-[2,3′:5′,4″-terpyridine]-5-carboxamide], 1000 to 2500 nM.
As for `CN(C)C(=O)c1ccc(-c2cc(-c3ccnc4[nH]ncc34)cnc2N)nc1` [Example 212, 2′-amino-N,N-dimethyl-5′-(2H-pyrazolo[3,4-b]pyridin-4-yl)-[2,3′-bipyridine]-5-carboxamide], the figure is 5 to 100 nM.
On to `CN(C)C(=O)c1ccc(-c2cc(-c3ccnc(C(C)(C)C)c3)cnc2N)nc1` [Example 106, 2′-amino-2″-(tert-butyl)-N,N-dimethyl-[2,3′:5′,4″-terpyridine]-5-carboxamide], for which the half-maximal inhibitory concentration (IC50) is 1000 to 2500 nM.
For `CN(C)C(=O)c1ccc(-c2cc(-c3ccc(=O)[nH]c3)cnc2N)cc1` [Example 17, 4-(6-amino-6′-oxo-1′,6′-dihydro-[3,3′-bipyridin]-5-yl)-N,N-dimethylbenzamide], the IC50 is less than 5000 nM.
As for `Nc1ncc(-c2ccnc3oc(C(=O)NC4COC4)cc23)cc1-c1ccc(N2CCCC2=O)cc1` [Example 93, 4-(6-amino-5-(4-(2-oxopyrrolidin-1-yl)phenyl)pyridin-3-yl)-N-(oxetan-3-yl)furo[2,3-b]pyridine-2-carboxamide], the figure is 5 to 100 nM; as for `CN(C)C/C=C/C(=O)Nc1cccc(C(=O)NCc2cc(-c3cnc(N)c(-c4ccc(C(=O)N(C)C)cn4)c3)ccn2)c1` [Example 192, (E)-2′-amino-2″-((3-(4-(dimethylamino)but-2-enamido)benzamido)methyl)-N,N-dimethyl-[2,3′:5′,4″-terpyridine]-5-carboxamide], 1000 to 2500 nM.
Compound `CN(C)C(=O)c1ccc(-c2cc(-c3ccncc3)cnc2N)nc1` [Example 19, 2′-amino-N,N-dimethyl-[2,3′:5′,4″-terpyridine]-5-carboxamide] displayed a half-inhibitory concentration (IC50) of 100 to 1000 nM.
As for `CN(C)C(=O)c1ccc(-c2cncc(-c3ccnc(C(C)(C)O)c3)c2)cc1` [Example 8, 4-(2′-(2-hydroxypropan-2-yl)-[3,4′-bipyridin]-5-yl)-N,N-dimethylbenzamide], the figure is 1000 to 2500 nM.
As for `Cn1cc(-c2cncc(-c3ccc(N4CCCC4=O)cc3)c2)c2cc(C(C)(C)O)cnc21` [Example 154, 1-(4-(5-(5-(2-hydroxypropan-2-yl)-1-methyl-1H-pyrrolo[2,3-b]pyridin-3-yl)pyridin-3-yl)phenyl)pyrrolidin-2-one], the figure is less than 5000 nM.
For `CN(C)C(=O)c1ccc(-c2cc(-c3ccnc4ccncc34)cnc2N)nc1` [Example 112, 2′-amino-N,N-dimethyl-5′-(1,6-naphthyridin-4-yl)-[2,3′-bipyridine]-5-carboxamide], the IC50 was 1000 to 2500 nM.
`Cc1c(-c2ccncc2)cncc1-c1ccc(N2CCCC2=O)cc1` [Example 82, 1-(4-(4-methyl-[3,4′-bipyridin]-5-yl)phenyl)pyrrolidin-2-one] registered an IC50 of 100 to 1000 nM.
In turn, `CN(C)C(=O)c1ccc(-c2cc(-c3ccncc3)cnc2N)cc1` [Example 16, 4-(6-amino-[3,4′-bipyridin]-5-yl)-N,N-dimethylbenzamide] had an IC50 of less than 5000 nM.
On to `COc1ncc(-c2cncc(-c3ccc(N4CCCC4=O)cc3)c2)c2cnn(C)c12` [Example 156, 1-(4-(5-(7-methoxy-1-methyl-1H-pyrazolo[3,4-c]pyridin-4-yl)pyridin-3-yl)phenyl)pyrrolidin-2-one], for which the IC50 was less than 5000 nM.
With `CN(C)C(=O)c1ccc(-c2cc(-c3ccnnc3)cnc2N)nc1` [Example 108, 2′-amino-N,N-dimethyl-5′-(pyridazin-4-yl)-[2,3′-bipyridine]-5-carboxamide], the IC50 is 2500 to 5000 nM.
Take `CN(C)C(=O)c1ccc(-c2cc(-c3ccnc(C#N)c3)cnc2N)nc1` [Example 107, 2′-amino-2″-cyano-N,N-dimethyl-[2,3′:5′,4″-terpyridine]-5-carboxamide]: the IC50 fell in the range of 1000 to 2500 nM.
`CN(C)C/C=C/C(=O)Nc1ccc(C(=O)NCc2cc(-c3cnc(N)c(-c4ccc(C(=O)N(C)C)cn4)c3)ccn2)cc1` [Example 189, (E)-2′-amino-2″-((4-(4-(dimethylamino)but-2-enamido)benzamido)methyl)-N,N-dimethyl-[2,3′:5′,4″-terpyridine]-5-carboxamide]: the concentration for half-maximal inhibition (IC50) fell in the range of 1000 to 2500 nM.
`CN(C)C(=O)c1ccc(-c2cc(-c3cccnc3)cnc2N)nc1` [Example 119, 2′-amino-N,N-dimethyl-[2,3′:5′,3″-terpyridine]-5-carboxamide]: the IC50 was less than 5000 nM.
`O=C1CCCN1c1ccc(-c2cncc(-c3c4n(c5ncccc35)CCC4)c2)cc1` [Example 299, 1-(4-(5-(7,8-dihydro-6H-pyrido[3,2-b]pyrrolizin-5-yl)pyridin-3-yl)phenyl)pyrrolidin-2-one] had an IC50 of 5 to 100 nM.
The compound `Nc1ncc(-c2ccnc3c2CNC3=O)cc1-c1ccc(N2CCCC2=O)cc1` [Example 95, 4-(6-amino-5-(4-(2-oxopyrrolidin-1-yl)phenyl)pyridin-3-yl)-5,6-dihydro-7H-pyrrolo[3,4-b]pyridin-7-one] registered an IC50 of 1 to 5 nM.
As for `CN(C)C(=O)c1ccc(-c2cncc(-c3cncc(-c4ccnc5[nH]ccc45)c3)c2)cc1` [Example 3, 4-(5′-(H-pyrrolo[2,3-b]pyridin-4-yl)-[3,3′-bipyridin]-5-yl)-N,N-dimethylbenzamide], the figure is 100 to 1000 nM; as for `COC(C)(C)c1cnc2c(c1)c(-c1cncc(-c3ccc(N4CCCC4=O)cc3)c1)cn2C` [Example 155, 1-(4-(5-(5-(2-methoxypropan-2-yl)-1-methyl-1H-pyrrolo[2,3-b]pyridin-3-yl)pyridin-3-yl)phenyl)pyrrolidin-2-one], less than 5000 nM; as for `CN(C)C(=O)c1ccc(-c2cc(-c3ccnc4c3ccn4C)cnc2N)nc1` [Example 105, 2′-amino-N,N-dimethyl-5′-(1-methyl-1H-pyrrolo[2,3-b]pyridin-4-yl)-[2,3′-bipyridine]-5-carboxamide], 100 to 1000 nM.
As for `CN(C)C(=O)c1ccc(-c2cc(C3=CCOCC3)cnc2N)cc1` [Example 18, 4-(2-amino-5-(3,6-dihydro-2H-pyran-4-yl)pyridin-3-yl)-N,N-dimethylbenzamide], the figure is less than 5000 nM; as for `CN(C)C(=O)c1ccc(-c2cc(-c3ccnc(C(C)(C)O)c3)cnc2N)nc1` [Example 101, 2′-Amino-2″-(2-hydroxypropan-2-yl)-N,N-dimethyl-[2,3′:5′,4″-terpyridine]-5-carboxamide], 1000 to 2500 nM.
As to `CN(C)C(=O)c1ccc(-c2cc(-c3ccnc4ccc(C#N)cc34)cnc2N)nc1` [Example 100, 2′-Amino-5′-(6-cyanoquinolin-4-yl)-N,N-dimethyl-[2,3′-bipyridine]-5-carboxamide], the IC50 lay in the range of 100 to 1000 nM.
The compound `CN(C)C(=O)c1ccc(-c2cc(-c3ccnc4occc34)cnc2N)nc1` [Example 104, 2′-amino-5′-(furo[2,3-b]pyridin-4-yl)-N,N-dimethyl-[2,3′-bipyridine]-5-carboxamide] showed an IC50 of 100 to 1000 nM.
